US20210283109A1, “HETEROCYCLIC DIAMIDINES” (Friedrich-Alexander-Universität Erlangen-Nürnberg, priority 2016, published 2021)

Legend:
[1] = tested on: human diseased dermal fibroblasts; assay: Collagen release from fibroblasts after stimulation with TGF-β; format: cell-based; settings: compared to TGF-β alone
Experimental: (§1) Dermal fibroblasts from patients with SSc were cultured in the presence of DB1976. […] Moreover, in the presence of DB1976 differentiation of fibroblasts into matrix-producing myofibroblasts is inhibited (FIG. 3C). Bleomycin induced skin fibrosis was induced by local injections of bleomycin in C57Bl/6 mice (10 weeks of age, mixed genders) for four weeks. Subcutaneous injections of 0.9% NaCl served as a control. DB1976 was administered into tail vein every second day in different concentrations (1 mg/kg body weight; 5 mg/kg body weight) after first application of bleomycin. […] Bleomycin-induced pulmonary fibrosis was induced by a single intratracheal application of bleomycin in C57Bl/6 mice (12 weeks of age, males) using a high pressure syringe (Penn-Century, Wyndmoor, Pa., USA). […]
(A) Formazan toxicity assay of fibroblasts incubated with different concentrations of DB1976 as indicated; (B) human diseased dermal fibroblasts untreated or stimulated with either TGF-β alone or TGF-β plus DB1976; collagen protein level and mRNA level of col1a1 relative to control. […] (C) Immune fluorescence microscopy of cultured fibroblasts as indicated; cells are stained with DAPI, alpha smooth muscle actin (αSMA) and stress fibers. Representative image of 5 independent experiments are shown. *p<0.05 determined by Student's t test according pretest for normality (D'Agostino-Pearson normality test). […]

[2] = tested on: CCl4-induced hepatic fibrosis in mice; assay: Carbon tetrachloride CCl4-induced hepatic fibrosis model; format: in vivo; settings: CCl4 i.p. twice weekly
Experimental: (§2) Dermal fibroblasts from patients with SSc were cultured in the presence of DB1976. […] Moreover, in the presence of DB1976 differentiation of fibroblasts into matrix-producing myofibroblasts is inhibited (FIG. 3C). Bleomycin induced skin fibrosis was induced by local injections of bleomycin in C57Bl/6 mice (10 weeks of age, mixed genders) for four weeks. Subcutaneous injections of 0.9% NaCl served as a control. DB1976 was administered into tail vein every second day in different concentrations (1 mg/kg body weight; 5 mg/kg body weight) after first application of bleomycin. […] Bleomycin-induced pulmonary fibrosis was induced by a single intratracheal application of bleomycin in C57Bl/6 mice (12 weeks of age, males) using a high pressure syringe (Penn-Century, Wyndmoor, Pa., USA). Instillation of equal volumes of 0.9% NaCl served as a control. […] Carbon tetrachloride CCl4-induced hepatic fibrosis was induced by intraperitoneal (i.p.) injections of CCl4 in […] mice (14 weeks of age, mixed genders) (Palumbo-Zerr et al. Nature Medicine 21, 150-158 (2015)) twice weekly. […] DB1976 was also effective when initiated after fibrosis had already become manifest. In those experiments, mice were pre-challenged with bleomycin for 3 weeks to induce robust skin fibrosis. After 3 weeks, treatment with DB1976 was initiated, while injections with bleomycin were continued. […] Therapeutic application of DB1976 ameliorated skin thickness, collagen content and myofibroblast counts in the skin (FIG. 6A-F).
(§3) FIG. 5: Model of bleomycin induced lung and CCI-4 induced liver fibrosis. (A) Representative images of sirius red staining of lung tissue from control mice (Wild-type (WT) treated with sodium chloride; n=4), bleomycin treated mice (n≥7) and mice treated with bleomycin and DB1976 (n=≥5); (B) quantification of the fibrotic area; (C, D) mRNA expression level of col1a1 and col1a2; (E) hydroxyproline content.

[3] = tested on: Bleomycin induced skin fibrosis in C57Bl/6 mice; assay: Bleomycin induced skin fibrosis model; format: in vivo; settings: tail vein every second day, 1 and 5 mg/kg body weight, bleomycin four weeks; concentration dependent
Experimental: as §2
FIG. 4: Model of bleomycin induced skin fibrosis. (A) Representative images of trichrome staining of skin tissue from control mice (Wild-type (WT) treated with sodium chloride; n≥7), bleomycin treated mice (n=10) and mice treated with bleomycin and different concentrations of DB1976 (n≥8 each); (B;C) mRNA collagen1a1 or collagen1a2 expression; (D) dermal thickness; (E) quantification of α-smooth muscle actin-positive myofibroblasts; (F) hydroxyproline content.

[4] = tested on: Dermal fibroblasts from patients with SSc; assay: Formazan toxicity assay of fibroblasts; format: cell-based, human; settings: dermal fibroblasts from SSc patients cultured with different concentrations of compound
Experimental: as §1
(§4) (A) Formazan toxicity assay of fibroblasts incubated with different concentrations of DB1976 as indicated; (B) human diseased dermal fibroblasts untreated or stimulated with either TGF-β alone or TGF-β plus DB1976; collagen protein level and mRNA level of col1a1 relative to control. […] (C) Immune fluorescence microscopy of cultured fibroblasts as indicated; cells are stained with DAPI, alpha smooth muscle actin (αSMA) and stress fibers. Representative image of 5 independent experiments are shown. *p<0.05 determined by Student's t test according pretest for normality (D'Agostino-Pearson normality test).

[5] = tested on: pre-established bleomycin induced skin fibrosis in mice; assay: Regression of pre-established bleomycin induced skin fibrosis; format: in vivo; settings: 6 weeks of bleomycin, treatment for the last 3 weeks
Experimental: as §2
FIG. 6: Regression of pre-established bleomycin induced skin fibrosis by treatment with DB1976. Mice were pre-challenged with bleomycin for 3 weeks to induce robust skin fibrosis. After 3 weeks, treatment with DB1976 was initiated, while injections with bleomycin were continued. After a total of 6 weeks of bleomycin and 3 weeks of treatment with DB1976, the extent of fibrosis was assessed. (A) Representative images of trichrome staining of skin tissue from control mice (Wild-type (WT) treated with sodium chloride; n≥4), 3 weeks bleomycin and afterwards 3 weeks sodium chloride treated mice (n≥8), bleomycin treated mice (n≥8) and mice treated with bleomycin and different concentrations of DB1976 (n≥3 each); (B;C) mRNA expression level of col1a1 and col1a2; (D) dermal thickness; (E) quantification of α-smooth muscle actin-positive myofibroblasts; (F) hydroxyproline content.

[6] = tested on: Dermal fibroblasts from patients with SSc; assay: Differentiation of fibroblasts into matrix-producing myofibroblasts (αSMA, stress fibers, immune fluorescence microscopy); format: cell-based, human; settings: in the presence of compound
Experimental: as §1, §4

[7] = tested on: Cancer associated fibroblasts (CAFs); assay: Matrix production of cancer associated fibroblasts activated by TGF-β; format: cell-based, human; settings: cultured with compound for 96 h, compared to CAFs without compound
From the text: Cancer associated fibroblasts (CAFs) are associated with cancer cells at all stages of cancer progression, and their structural and functional contributions to this process are well known. This implies that CAFs have a prominent role in the progression, growth and spread of cancers and represent an important target for cancer therapies.
FIG. 7: DB1976 inhibits collagen production of cancer associated fibroblasts (CAFs). (A) Quantification of PU.1-expressing fibroblasts in healthy colon tissue compared to tumor tissue (colorectal carcinoma). Cells are counted per high power field (HPF). (B) collagen production of CAFs assessed by western blot analysis; PU.1, collagen and β-actin expression in response to stimulation w/o TGF-β in the presence and absence of DB1976; representative blots of 6 independent experiments are shown. […] (C) Immune fluorescence microscopy of fibroblasts from healthy tissue (HC) and CAFs cultured w/o DB1976; DAPI and alpha smooth muscle actin (αSMA) are stained. Representative images of 5 independent experiments are shown. *p<0.05; **p<0.01 determined by Mann-Whitney U-test for non-parametric data.

apoptosis = assay: Apoptosis by staining for cleaved caspase-3 or TUNEL assays
PU.1 = settings: cited from earlier work
mice = assay: Tolerability of treatment in mice; format: in vivo
Experimental: Dermal fibroblasts from patients with SSc were cultured in the presence of DB1976. […] Moreover, in the presence of DB1976 differentiation of fibroblasts into matrix-producing myofibroblasts is inhibited (FIG. 3C). Bleomycin induced skin fibrosis was induced by local injections of bleomycin in C57Bl/6 mice (10 weeks of age, mixed genders) for four weeks. Subcutaneous injections of 0.9% NaCl served as a control. DB1976 was administered into tail vein every second day in different concentrations (1 mg/kg body weight; 5 mg/kg body weight) after first application of bleomycin. […] Bleomycin-induced pulmonary fibrosis was induced by a single intratracheal application of bleomycin in C57Bl/6 mice (12 weeks of age, males) using a high pressure syringe (Penn-Century, Wyndmoor, Pa., USA). Instillation of equal volumes of 0.9% NaCl served as a control. […] Carbon tetrachloride CCl4-induced hepatic fibrosis was induced by intraperitoneal (i.p.) injections of CCl4 in […] mice (14 weeks of age, mixed genders) (Palumbo-Zerr et al. Nature Medicine 21, 150-158 (2015)) twice weekly. […] DB1976 was also effective when initiated after fibrosis had already become manifest. In those experiments, mice were pre-challenged with bleomycin for 3 weeks to induce robust skin fibrosis. After 3 weeks, treatment with DB1976 was initiated, while injections with bleomycin were continued. […]

[8] = tested on: Bleomycin-induced pulmonary fibrosis in C57Bl/6 mice; assay: Bleomycin-induced pulmonary fibrosis model; format: in vivo; settings: lung; compared to mice that received bleomycin without compound
Experimental: as §2, §3

SMILES: N=C(N)c1ccc2nc(-c3ccc(-c4nc5ccc(C(=N)N)cc5[nH]4)[se]3)[nH]c2c1 [DB1976]
- collagen release from fibroblasts [1]: strong reduction
- fibrotic tissue remodeling of the liver [2]: significant less
- collagen production ([2]; liver): less
- myofibroblast differentiation ([2]; liver): less
- collagen release assessed by col1a2 mRNA expression [3]: significantly decreased
- collagen release assessed by hydroxyproline content of the skin [3]: significantly decreased
- myofibroblast differentiation [3]: significantly decreased
- skin thickening [3]: significantly decreased
- toxic effects in formazan toxicity assays [4]: did not observe toxic effects
- collagen content in the skin [5]: ameliorated
- myofibroblast counts in the skin [5]: ameliorated
- skin thickness [5]: ameliorated
- extent of fibrosis ([5]; compared to controls): significantly reduced
- differentiation of fibroblasts into matrix-producing myofibroblasts [6]: inhibited
- alpha smooth muscle actin (αSMA) [7]: significant reduction
- collagen production [7]: significant reduction
- stress fiber expression [7]: significant reduction
- apoptosis by TUNEL assays (apoptosis): did not detect any evidence of apoptosis
- apoptosis in staining for cleaved caspase-3 (apoptosis): did not detect any evidence of apoptosis
- inhibition of PU.1-binding to the DNA of PU.1 target genes (PU.1): potent inhibitor
- clinical evidence of toxicity (mice): no clinical evidence of toxicity
- tolerability of treatment (mice): well-tolerated
- Ashcroft score [8]: reduced
- collagen expression (hydroxyproline content) [8]: decreased
- collagen expression (mRNA) [8]: decreased
- myofibroblast count [8]: decreased
- volume of fibrotic area [8]: decreased
